Measured values from patent publication US11832638B2, “N-acyl derivatives of gamma amino-butyric acid and beta alanine as food flavouring compounds” (GIVAUDAN SA, priority 2012, dated 2023).

Key:
[1] = Comparison in a strawberry drink; conditions: 0.5 ppm, 7% sucrose, 0.1% citric acid, strawberry flavour 0.015%
Description: Comparison in a Strawberry Drink
Base is 7% sucrose, 0.1% citric acid, and a proprietary strawberry flavour @0.015%

[2] = Strawberry flavoured sugar sweetened yoghurt; conditions: 2 ppm, 1.5% fat yoghurt base, 8% sucrose, strawberry flavour 0.015%
Description: Strawberry Flavoured Sugar Sweetened Yoghurt
The base consisted of a 1.5% fat yoghurt base, sweetened with 8% sucrose by weight, flavoured with a proprietary strawberry flavour @ 0.015%.

**Q.** With `CCCCCCCCCCCCCCCCCC(=O)NCCCC(=O)O` [C18:0-gaba] as the compound, how does the taste description [1] read?
**A.** mild creamy, fruity, juicy and long lasting

**Q.** What about the taste description [2] of the same compound?
**A.** juicy full, jammy
